# Tests used:
# HSC-iNKT cells [1] = test: GCV in vivo killing assay, NSG xenograft mouse model; parameters: species or system human cells in NSG mice; details: GCV i.p. 50 mg/kg per day, 5 days
# Protocol: (§1) To increase the safety profile of HSC-iNKT cell product, we included an sr39TK PET imaging/suicide gene in the lentiviral vector, which allows for the in vivo monitoring of these cells using PET imaging and the elimination of these cells through ganciclovir (GCV)-induced depletion in case of an adverse event (FIGS S1A and 1B in Li et al.).
# GCV in vivo killing assay was performed using an NSG xenograft mouse model. NSG mice received i.v. injection of 1×10^7 HSC-iNKT cells on day 0, followed by i.p. injection of GCV for 5 consecutive days (50 mg/kg per injection per day). On day 5, mice were terminated. Multiple tissues (i.e., blood, spleen, liver, and lung) were collected and processed for flow cytometry analysis to detect tissue-infiltrating HSC-iNKT cells (identified as iNKT TCR^+CD45^+), following established protocols (Li et al., 2021b; Y. R. Li et al., 2022; Zhu et al., 2019).
# HSC-iNKT cells [2] = test: GCV in vitro killing assay; format: cell-based, human; details: GCV 0-50 μM, 4 days
# Protocol: as §1
# For GCV in vitro killing assays, HSC-iNKT cells were cultured in C10 medium in the presence of titrated amount of GCV (0-50 μM) for 4 days; live HSC-iNKT cells were then counted using a hematocytometer (VWR) via Trypan Blue staining (Fisher Scientific).
smiles,measurement,setting,value
"Nc1nc(O)c2ncn(COC(CO)CO)c2n1 [GCV, Ganciclovir]","depletion of HSC-iNKT cells from blood, liver, spleen and lung",HSC-iNKT cells [1],efficient depletion
same,killing of HSC-iNKT cells in cell culture,HSC-iNKT cells [2],effective killing

# Reference: patent US20260034218A1, “ALLEVIATING GRAFT VERSUS HOST DISEASE USING ENGINEERED INKT CELLS” (The Regents of the University of California, priority 2022, published 2026)
